Data reported in patent US7008630B2, “Lipochroman-6 as NO-synthase inhibitor and uses” (L' Oreal, priority 2000, dated 2006).

Target: T1, inducible NO-synthase (NO-synthase 2) (Homo sapiens, UniProt P35228)
T1 construct: positive control (induction of the enzyme): mixtures of γ-interferon (1 000 U/ml) and interleukin-1β (100 U/ml); endogenous in cells
Test: Activity on inducible NO-synthase: decrease in nitrate and nitrite concentration after stimulation of NO-synthase 2 (test of Heck et al.)
Type: cell-based
Conditions: for % inhibition: induction with γ-interferon 1 000 U/ml and interleukin-1β 100 U/ml, nitrites and nitrates measured
Experimental: The activity of lipochroman-6 on inducible NO-synthase was evaluated in the test described by Heck et al. (J. B. C., Vol. 267, No. 30, 21277–21280, Oct. 25, 1992).
In order to determine the activity of the product to be tested, the amount of stable NO reaction products (nitrites and nitrates) is measured using the nitric calorimetric assay kit sold by the company Boehringer under the reference 1756.28.
The lipochroman-6 was tested at the concentrations of 0.005% and 0.01% (weight/volume) in ethanol.

T1 sequence (P35228 whole entry, species assumed): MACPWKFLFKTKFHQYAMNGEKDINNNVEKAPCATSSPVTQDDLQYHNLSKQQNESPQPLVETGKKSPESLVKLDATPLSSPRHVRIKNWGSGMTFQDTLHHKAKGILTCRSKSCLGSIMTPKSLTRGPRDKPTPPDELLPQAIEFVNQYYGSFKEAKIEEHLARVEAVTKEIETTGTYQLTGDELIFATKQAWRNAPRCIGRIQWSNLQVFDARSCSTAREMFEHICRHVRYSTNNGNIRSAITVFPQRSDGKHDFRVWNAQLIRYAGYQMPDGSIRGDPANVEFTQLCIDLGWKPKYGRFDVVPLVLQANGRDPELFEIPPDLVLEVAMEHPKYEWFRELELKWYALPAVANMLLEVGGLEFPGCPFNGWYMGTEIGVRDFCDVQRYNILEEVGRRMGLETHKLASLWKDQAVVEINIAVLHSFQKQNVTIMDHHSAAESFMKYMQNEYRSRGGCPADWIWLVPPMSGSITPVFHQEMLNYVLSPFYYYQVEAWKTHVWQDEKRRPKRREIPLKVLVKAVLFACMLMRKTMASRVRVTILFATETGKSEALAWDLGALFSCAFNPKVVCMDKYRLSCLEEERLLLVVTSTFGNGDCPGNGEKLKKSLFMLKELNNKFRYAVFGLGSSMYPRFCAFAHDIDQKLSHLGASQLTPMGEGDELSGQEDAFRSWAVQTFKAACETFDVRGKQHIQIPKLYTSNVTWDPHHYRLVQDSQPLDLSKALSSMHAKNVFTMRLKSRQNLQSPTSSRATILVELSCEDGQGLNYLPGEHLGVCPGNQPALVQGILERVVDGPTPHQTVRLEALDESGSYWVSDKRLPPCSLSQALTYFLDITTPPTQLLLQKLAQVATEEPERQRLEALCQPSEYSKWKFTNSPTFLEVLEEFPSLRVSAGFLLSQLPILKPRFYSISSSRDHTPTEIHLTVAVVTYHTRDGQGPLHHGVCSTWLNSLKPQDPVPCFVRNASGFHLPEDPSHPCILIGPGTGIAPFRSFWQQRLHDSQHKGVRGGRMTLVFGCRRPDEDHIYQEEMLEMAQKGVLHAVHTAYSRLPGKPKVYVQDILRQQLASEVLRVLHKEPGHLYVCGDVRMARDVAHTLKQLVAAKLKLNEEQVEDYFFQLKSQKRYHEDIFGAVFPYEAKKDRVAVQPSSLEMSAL

COc1cc2c(cc1O)CCC(C)(C)O2 [Lipochroman-6, lipochroman-6]
effect on inducible NO-synthase (in words): inhibitory effect
% inhibition (lipochroman-6 at 0.005% (weight/volume) in ethanol): 38%
% inhibition (lipochroman-6 at 0.01% (weight/volume) in ethanol): 95%
